Data from the supplement of paper PMC7224384.

Columns and labels:
MDA-MB-453 [1] = assay: drug sensitivity score (DSS), in combination with BLU9931 (DSS (weighted AUC score)); higher = more sensitive (stronger viability decrease); extreme values may be limits of the assay; settings: BLU9931 100 nM; 72 h
Summary of the method: (§1)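 Compounds from the FIMM Oncology set were predispensed in singlicate at five 10-fold dilutions (10,000-fold range) on 384-well plates. Each well then received 2000 MDA-MB-453 cells in medium with or without an FGFR4 inhibitor (100 nM final) and was kept at 37 °C, 5% CO2. Cellular ATP was read with CellTiterGlo 2.0 after 72 h and normalised per plate to percent viability from control wells. The drug sensitivity score is a weighted area under a four-parameter logistic fit.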

MDA-MB-453 [2] = assay: drug sensitivity score (DSS), single agent (DSS (weighted AUC score)); higher = more sensitive (stronger viability decrease); extreme values may be limits of the assay; settings: BLU9931 0 nM; 72 h
Summary of the method: as §1

| Structure (SMILES) | drug sensitivity score (MDA-MB-453 [1]) | drug sensitivity score (MDA-MB-453 [2]) |
| --- | --- | --- |
| Cc1ccc(C(=O)Nc2ccc(CN3CCN(C)CC3)c(C(F)(F)F)c2)cc1C#Cc1cnc2cccnn12 [Ponatinib] | 1.7 | 5.9 |
| Nc1nc2[nH]cc(CCc3ccc(C(=O)N[C@@H](CCC(=O)O)C(=O)O)cc3)c2c(=O)[nH]1 [Pemetrexed] | 1.8 | 5.4 |
| COc1cccc2c1c(O)c(C(=O)N(C)c1ccc(C(F)(F)F)cc1)c(=O)n2C [Tasquinimod] | 1.4 | 2.9 |
| COc1cc(Nc2c(C#N)cnc3cc(OCCCN4CCN(C)CC4)c(OC)cc23)c(Cl)cc1Cl [Bosutinib] | 4.6 | 5 |
| CC(C)(C)c1cc(NC(=O)Nc2ccc(Oc3ccnc4[nH]c(=O)cnc34)cc2F)n(-c2ccccc2)n1 | 6.7 | 7.9 |
| O=C(Nc1cccc(Nc2ncc(Br)c(NCCc3cnc[nH]3)n2)c1)N1CCCC1 [BX-912] | 3.8 | 4.5 |
| Cc1nc2cccc(N)c2c(=O)n1C1CCC(=O)NC1=O (configuration not stated) [CC122] | 0 | 0 |
| Cc1sc2c(c1C)C(c1ccc(Cl)cc1)=N[C@@H](CC(=O)NCCCCNC(=O)COc1cccc3c1C(=O)N(C1CCC(=O)NC1=O)C3=O)c1nnc(C)n1-2 (some centres not stated) [dBET1] | 13.2 | 12.2 |
| Cc1c(C(=O)Nc2ccc(N3C[C@@H](C)O[C@@H](C)C3)nc2)cccc1-c1ccc(OC(F)(F)F)cc1 [Sonidegib] | 1.4 | 5.8 |
| CNC(=O)c1nn(C)c2c1C(C)(C)Cc1cnc(Nc3ccc(N4CCN(C)CC4)cc3)nc1-2 [Milciclib] | 7.5 | 8.3 |
| O[C@H](C[C@H]1c2c(F)cccc2-c2cncn21)[C@H]1CC[C@H](O)CC1 [GDC-0919] | 0 | 0 |
| CC(C)c1cc(-c2n[nH]c(=O)n2-c2ccc3c(ccn3C)c2)c(O)cc1O [Ganetespib] | 18.5 | 18.7 |
| CCN1C(=O)CNc2ncc(-c3ccc(-c4nc[nH]n4)nc3C)nc21 [CC-115] | 12.5 | 12.2 |
| CC(C)[C@@H](CS(=O)(=O)C(C)C)N1C(=O)[C@@](C)(CC(=O)O)C[C@H](c2cccc(Cl)c2)[C@H]1c1ccc(Cl)cc1 [AMG-232] | 0 | 0.2 |
| C#Cc1cccc(Nc2ncnc3cc(OCCOC)c(OCCOC)cc23)c1 [Erlotinib] | 4.7 | 2.7 |
| Nc1nc(Cl)nc2c1ncn2[C@H]1C[C@H](O)[C@@H](CO)O1 [Cladribine] | 0 | 0 |
| CCC(C)n1ncn(-c2ccc(N3CCN(c4ccc(OCC5COC(Cn6cncn6)(c6ccc(Cl)cc6Cl)O5)cc4)CC3)cc2)c1=O (configuration not stated) [Itraconazole] | 1.5 | 2.9 |
| C/C(=C\c1csc(C)n1)[C@@H]1C[C@@H]2O[C@]2(C)CCC[C@H](C)[C@H](O)[C@@H](C)C(=O)C(C)(C)[C@@H](O)CC(=O)N1 [Ixabepilone] | 4.1 | 5.6 |
| CC1(COc2ccc3c(c2)ncn3-c2ccc3cccc(N4CCC(N)CC4)c3n2)COC1 [Crenolanib] | 6.5 | 7.5 |
| CO[C@H]1C(=O)[C@]2(C)[C@@H](OC)C[C@H]3OC[C@@]3(OC(C)=O)[C@H]2[C@H](OC(=O)c2ccccc2)[C@]2(O)C[C@H](OC(=O)[C@H](O)[C@@H](NC(=O)OC(C)(C)C)c3ccccc3)C(C)=C1C2(C)C [Cabazitaxel] | 8.8 | 14.6 |
| CO[C@H](C(=O)[C@@H](O)[C@@H](C)O)[C@@H]1Cc2cc3cc(O[C@H]4C[C@@H](O[C@@H]5C[C@@H](O)[C@H](O)[C@@H](C)O5)[C@H](O)[C@@H](C)O4)c(C)c(O)c3c(O)c2C(=O)[C@H]1O[C@H]1C[C@@H](O[C@@H]2C[C@@H](O)[C@@H](O[C@@H]3C[C@](C)(O)[C@H](O)[C@@H](C)O3)[C@@H](C)O2)[C@H](O)[C@@H](C)O1 [Plicamycin] | 15.7 | 15.7 |
